From patent US20250326748A1, “COMPOUNDS AND METHODS FOR MODULATING SPLICING” (REMIX THERAPEUTICS INC., priority 2022, published 2025) come the findings set out here.

Read-outs that look alike come from different tables or passages of the source.

In assay [1] the test system is HTT mRNA. In words: Splicing RT-qPCR assay, HTT canonical (CJ) and alternative (AJ) junction mRNA. Format: cell-based, human. To be noted: Homo sapiens; for IC50: canonical junction mRNA; for AC50: alternative junction mRNA, read-out: HTT AJ (AC50, increase in AJ mRNA). In short, it runs like this: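 A673 or K562 cells were treated for 24 h at 37 °C with an 11-point 3-fold compound dilution series (top final 10 uM, DMSO ≤0.25%). Lysates then went to one-step TaqMan RT-qPCR quantifying canonical (CJ) and alternative-exon (AJ) junction transcripts, normalized to a housekeeping gene.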

For assay [2], the system named is SMN2 mRNA. In words: Splicing RT-qPCR panel, SMN2 canonical junction (CJ) mRNA. Format: cell-based, human. To be noted: Homo sapiens, read-out: SMN2 CJ (decrease in CJ mRNA levels, IC50). Put shortly:
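A673 cells (DMEM, 10% FBS) or K562 cells (IMDM, 10% FBS) treated 24 h at 37 °C with an 11-point 3-fold dilution, top 10 uM, DMSO ≤0.25%. Canonical-junction mRNA quantified in lysates by RT-qPCR, normalised to GAPDH, GUSB or PPIA and to DMSO (2^−ΔΔCt), then converted to % response.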

The mark [3] stands for this setting: 24 h, RT-qPCR, A673 or K562 cells, 24 hours treatment, read-out: HTT CJ (IC50, decrease in CJ mRNA).
[4] abbreviates: qPCR panel, read-out: HTT CJ (decrease in CJ mRNA levels, IC50).
The mark [5] stands for this setting: RT-qPCR, A673 or K562 cells, 24 hours treatment.

Turning to `C[C@@H]1CN(c2cnc3nc(-c4cc(C#N)c5nn(C)cc5c4)cc(Cl)c3c2)C[C@H](C)N1` [Compound 325, 5-(4-chloro-6-((3R,5S)-3,5-dimethylpiperazin-1-yl)-1,8-naphthyridin-2-yl)-2-methyl-2H-indazole-7-carbonitrile 2,2,2-trifluoroacetate], the figures for the 50% inhibitory concentration (IC50) in assay [1] (setting [3]), in assay [1] (setting [4]) and in assay [2] were greater than 10000 nM, greater than 10000 nM and less than 100 nM, respectively. The AC50 in assay [1] (setting [5]) is greater than 10000 nM.

Regarding `Cc1cn2nc(-c3ccc4cc(N5C[C@@H](C)N[C@@H](C)C5)cnc4n3)cc(C)c2n1` [Compound 330], the IC50 is 100 to 1000 nM in assay [1] (setting [3]), 100 to 1000 nM in assay [1] (setting [4]) and less than 100 nM in assay [2]. Further, the AC50 in assay [1] (setting [5]) was in the range of 100 to 1000 nM.

In the case of `Cc1cn2nc(-c3cc(Cl)c4cc(N5C[C@@H](C)N[C@@H](C)C5)cnc4n3)cc(C)c2n1` [Compound 335, 4-chloro-2-{2,8-dimethylimidazo[1,2-b]478pyridazine-6-yl}-6-[(3R,5S)-3,5-dimethylpiperazin-1-yl]-1,8-naphthyridine], the IC50 in assay [1] (setting [3]) is 100 to 1000 nM; in assay [1] (setting [4]) it was 100 to 1000 nM; in assay [2], less than 100 nM. Also, the AC50 in assay [1] (setting [5]) is 1000 to 10000 nM.

As for `CN[C@H]1CCN(c2cnc3nc(-c4cc(C)c5nc(C)cn5n4)cc(Cl)c3c2)C1` [Compound 340], the IC50 is 100 to 1000 nM in assay [1] (setting [3]), 100 to 1000 nM in assay [1] (setting [4]) and less than 100 nM in assay [2]. For the same molecule, the AC50 in assay [1] (setting [5]) lay within 100 to 1000 nM.

For the molecule `CN[C@@H]1CCN(c2cnc3nc(-c4cc(C)c5nc(C)cn5n4)cc(Cl)c3c2)C1` [Compound 341], the 50% inhibitory concentration (IC50) in assay [1] (setting [3]), in assay [1] (setting [4]) and in assay [2] was less than 100 nM each time. Moreover, the AC50 in assay [1] (setting [5]) is less than 100 nM.

On to `C[C@@H]1CN(c2cnc3nc(-c4cc5cn(C)nc5cc4O)ccc3c2)C[C@H](C)N1` [Compound 343], for which the IC50 was 100 to 1000 nM in assay [1] (setting [3]), 1000 to 10000 nM in assay [1] (setting [4]) and less than 100 nM in assay [2]. In addition, the half-maximal activity concentration (AC50) in assay [1] (setting [5]) lay in the range of 1000 to 10000 nM.

For the molecule `Cc1cn2nc(-c3cc(Cl)c4cc(N5CCC(N(C)C)CC5)cnc4n3)cc(C)c2n1` [Compound 348], the IC50 in assay [1] (setting [3]) is 100 to 1000 nM; in assay [1] (setting [4]), 100 to 1000 nM; in assay [2], less than 100 nM. In addition, in assay [1] (setting [5]), the AC50 is 100 to 1000 nM.

For `Cc1cn2nc(-c3cc(Cl)c4cc(N5CCC(N6CCC6)CC5)cnc4n3)cc(C)c2n1` [Compound 349], the values for the IC50 in assay [1] (setting [3]), in assay [1] (setting [4]) and in assay [2] were 100 to 1000 nM, 100 to 1000 nM and less than 100 nM, respectively. The AC50 in assay [1] (setting [5]) is 100 to 1000 nM.

For the molecule `Cc1cn2cc(-c3ccc4cc(N5C[C@@H](C)N[C@@H](C)C5)cnc4n3)cc(F)c2n1` [Compound 350], the figures for the IC50 in assay [1] (setting [3]), in assay [1] (setting [4]) and in assay [2] were greater than 10000 nM, greater than 10000 nM and 100 to 1000 nM, respectively. Further, the AC50 in assay [1] (setting [5]) was greater than 10000 nM.
